Laboratory results taken from patent publication US20070249827A1, “Meropenem Intermediatein in Crystalling Form” (SANDOZ AG, priority 2004, published 2007).

Experiment: Stability comparison between crystalline form and amorphous form (storage 72 h at 70° C.)
Format: physicochemical
Details: for content, starting value / sum of all by-products, starting value: before storage

Row | SMILES | content after 72 h at 70° C. [% by weight] | sum of all by-products after 72 h at 70° C. | content, starting value [% by weight] | sum of all by-products, starting value [%]
1 | C[C@@H](O)[C@H]1C(=O)N2C(C(=O)OCc3ccc([N+](=O)[O-])cc3)=C(S[C@H]3C[C@@H](C(=O)N(C)C)N(C(=O)OCc4ccc([N+](=O)[O-])cc4)C3)[C@H](C)[C@H]12 [Compound of formula I in amorphous form, (4R,5S,6S)-(p-nitrobenzyl) 3-[[(3S,5S)-1(-p-nitrobenzyloxycarbonyl)-5-(dimethylaminocarbonyl)-3-pyrrolidinyl]thio]-6-[(1R)-1-hydroxyethyl]-4-methyl-7-oxo-1-azabicyclo[3.2.0]hept-2-ene-2-carboxylate] | 90.8 | sum of all by-products 5.7% | 92.4 | 2.5
2 | C[C@@H](O)[C@H]1C(=O)N2C(C(=O)OCc3ccc([N+](=O)[O-])cc3)=C(S[C@H]3C[C@@H](C(=O)N(C)C)N(C(=O)OCc4ccc([N+](=O)[O-])cc4)C3)[C@H](C)[C@H]12 [Compound of formula I in crystalline form] [(4R,5S,6S)-(p-nitrobenzyl) 3-[[(3S,5S)-1(-p-nitrobenzyloxycarbonyl)-5-(dimethylaminocarbonyl)-3-pyrrolidinyl]thio]-6-[(1R)-1-hydroxyethyl]-4-methyl-7-oxo-1-azabicyclo[3.2.0]hept-2-ene-2-carboxylate] | 99.1 | <0.3% | 99.4 | <0.3
